Biological target: T1, human mAChR M4 (Homo sapiens, UniProt P08173)
T1 construct: expressed in transfected cells
T1 sequence (P08173 1-479): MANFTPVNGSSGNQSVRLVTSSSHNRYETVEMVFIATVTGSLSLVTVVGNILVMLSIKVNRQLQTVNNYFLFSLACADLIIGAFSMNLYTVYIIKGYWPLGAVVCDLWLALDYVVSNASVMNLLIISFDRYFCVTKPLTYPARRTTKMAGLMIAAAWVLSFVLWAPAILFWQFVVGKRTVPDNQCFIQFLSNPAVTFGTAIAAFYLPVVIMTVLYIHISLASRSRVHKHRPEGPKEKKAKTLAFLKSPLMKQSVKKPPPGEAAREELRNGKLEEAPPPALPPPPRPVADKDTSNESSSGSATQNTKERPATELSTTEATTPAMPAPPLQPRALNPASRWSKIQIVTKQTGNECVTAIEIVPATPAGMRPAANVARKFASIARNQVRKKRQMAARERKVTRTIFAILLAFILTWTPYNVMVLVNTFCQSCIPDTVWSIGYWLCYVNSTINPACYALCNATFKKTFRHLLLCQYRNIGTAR
Assay: mAChR M4 cell-based functional assay (calcium mobilization, CHO-K1 hM4-Gqi5 cells)
Details: for Emax at 30 µM: CHO-K1, % ACh maximum at 30 μM, human M4; for EC50: positive allosteric modulator activity, increase in the EC20 acetylcholine response, CHO-K1 hM4-Gqi5 cells, read-out: Human M4 EC50; for Emax: CHO-K1
Summary of the method: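 Fluorescent calcium read-out (Fluo-4 AM, FDSS, 1 Hz) in hM4-Gqi5 CHO-K1 cells, 11-point 1:3 compound series. Agonism scored on compound addition, PAM activity as increase of the 144 s EC20 acetylcholine response, antagonism as decrease of the 230 s EC80 response; four-parameter logistic fits give EC50 and Emax.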

SMILES	Emax at 30 µM	EC50	Emax
CCn1cc(-c2cnc3c(c2)CN(c2ncc(C#N)cc2C)CC3)cn1 [compound 105, 6-[3-(1-ethylpyrazol-4-yl)-7,8-dihydro-5H-1,6-naphthyridin-6-yl]-5-methyl-pyridine-3-carbonitrile]	98%	263 nM	
Cc1cc(C#N)cnc1N1CCc2ncc(-c3cnn(-c4ccc(F)cc4)c3)cc2C1 [compound 106, 6-[3-[1-(4-fluorophenyl)pyrazol-4-yl]-7,8-dihydro-5H-1,6-naphthyridin-6-yl]-5-methyl-pyridine-3-carbonitrile]	33%	1140 nM	
Cc1cc(C#N)cnc1N1CCc2ncc(-c3c(C)nn(C)c3C)cc2C1 [compound 107, 5-methyl-6-[3-(1,3,5-trimethylpyrazol-4-yl)-7,8-dihydro-5H-1,6-naphthyridin-6-yl]pyridine-3-carbonitrile]	98%	142 nM	
CCCn1cc(-c2cnc3c(c2)CN(c2ncc(C#N)cc2C)CC3)cn1 [compound 108, 5-methyl-6-[3-(1-propylpyrazol-4-yl)-7,8-dihydro-5H-1,6-naphthyridin-6-yl]pyridine-3-carbonitrile]	90%	330 nM	
Cc1cc(C#N)cnc1N1CCc2ncc(-c3c(C)noc3C)cc2C1 [compound 109, 6-[3-(3,5-dimethylisoxazol-4-yl)-7,8-dihydro-5H-1,6-naphthyridin-6-yl]-5-methyl-pyridine-3-carbonitrile]	90%	167 nM	
Cc1cc(C#N)cnc1N1CCc2ncc(Nc3cc(F)ccc3F)cc2C1 [compound 110, 6-[3-(2,5-difluoroanilino)-7,8-dihydro-5H-1,6-naphthyridin-6-yl]-5-methyl-pyridine-3-carbonitrile]	95%	167 nM	
Cc1cc(C#N)cnc1N1CCc2ncc(Nc3c(F)cccc3Cl)cc2C1 [compound 111, 6-[3-(2-chloro-6-fluoro-anilino)-7,8-dihydro-5H-1,6-naphthyridin-6-yl]-5-methyl-pyridine-3-carbonitrile]	93%	345 nM	
Cc1cc(C#N)cnc1N1CCc2ncc(-c3cnn(CC(C)C)c3)cc2C1 [compound 112, 6-[3-(1-isobutylpyrazol-4-yl)-7,8-dihydro-5H-1,6-naphthyridin-6-yl]-5-methyl-pyridine-3-carbonitrile]	76%	465 nM	
Cc1cc(C#N)cnc1N1CCc2ncc(Nc3cccc(C(F)(F)F)c3F)cc2C1 [compound 113, 6-[3-[2-fluoro-3-(trifluoromethyl)anilino]-7,8-dihydro-5H-1,6-naphthyridin-6-yl]-5-methyl-pyridine-3-carbonitrile]	98%	1450 nM	
Cc1cc(C#N)cnc1N1CCc2ncc(Nc3cccc(Cl)c3F)cc2C1 [compound 114, 6-[3-(3-chloro-2-fluoro-anilino)-7,8-dihydro-5H-1,6-naphthyridin-6-yl]-5-methyl-pyridine-3-carbonitrile]	100%	969 nM	
Cc1ccc(F)c(Nc2cnc3c(c2)CN(c2ncc(C#N)cc2C)CC3)c1 [compound 115, 6-[3-(2-fluoro-5-methyl-anilino)-7,8-dihydro-5H-1,6-naphthyridin-6-yl]-5-methyl-pyridine-3-carbonitrile]	92%	995 nM	
Cc1cc(C#N)cnc1N1CCc2ncc(Nc3cc(F)cc(F)c3F)cc2C1 [compound 116, 5-methyl-6-[3-(2,3,5-trifluoroanilino)-7,8-dihydro-5H-1,6-naphthyridin-6-yl]pyridine-3-carbonitrile]	95%	336 nM	
Cc1cnc2c(c1)CN(c1nnc(C#N)c(C)c1C)CC2 [compound 117, 4,5-dimethyl-6-(3-methyl-7,8-dihydro-5H-1,6-naphthyridin-6-yl)pyridazine-3-carbonitrile]		3650 nM	55%
Cc1c(C#N)nnc(N2CCc3ncccc3C2)c1C [compound 118, 6-(7,8-dihydro-5H-1,6-naphthyridin-6-yl)-4,5-dimethyl-pyridazine-3-carbonitrile]		2820 nM	92%
Cc1c(C#N)nnc(N2CCc3ncc(Nc4cccnc4F)cc3C2)c1C [compound 119, 6-[3-[(2-fluoro-3-pyridyl)amino]-7,8-dihydro-5H-1,6-naphthyridin-6-yl]-4,5-dimethyl-pyridazine-3-carbonitrile]	82%	191 nM	
Cc1ccc(Nc2cnc3c(c2)CN(c2ncc(C#N)cc2C)CC3)c(F)n1 [compound 132, 6-[3-[(2-fluoro-6-methyl-3-pyridyl)amino]-7,8-dihydro-5H-1,6-naphthyridin-6-yl]-5-methyl-pyridine-3-carbonitrile]	96%	234 nM	
COC(=O)c1cnc(N2CCc3ncc(Br)cc3C2)c(C)c1 [compound 133, methyl 6-(3-bromo-7,8-dihydro-5H-1,6-naphthyridin-6-yl)-5-methyl-pyridine-3-carboxylate]		158 nM	100%

More lines, main results first:

Emax at 30 µM	EC50	SMILES	Emax
64%	2680 nM	Cc1cc(C(=O)NCc2cn3ccccc3n2)cnc1N1CCc2ncccc2C1 [compound 120]	
70%	544 nM	Cc1cc(C(=O)Nc2ccncc2)cnc1N1CCc2ncccc2C1 [compound 121, 6-(7,8-dihydro-5H-1,6-naphthyridin-6-yl)-5-methyl-N-(4-pyridyl)pyridine-3-carboxamide]	
55%	≥ 10000 nM	Cc1cc(C(=O)NC2CCOCC2)cnc1N1CCc2ncccc2C1 [compound 122, 6-(7,8-dihydro-5H-1,6-naphthyridin-6-yl)-5-methyl-N-tetrahydropyran-4-yl-pyridine-3-carboxamide]	
82%	≥ 10000 nM	Cc1cc(C(=O)NCc2ccno2)cnc1N1CCc2ncccc2C1 [compound 123, 6-(7,8-dihydro-5H-1,6-naphthyridin-6-yl)-N-(isoxazol-5-ylmethyl)-5-methyl-pyridine-3-carboxamide]	
78%	2170 nM	Cc1cc(C(=O)NC23CC(F)(C2)C3)cnc1N1CCc2ncccc2C1 [compound 124, 6-(7,8-dihydro-5H-1,6-naphthyridin-6-yl)-N-(3-fluoro-1-bicyclo[1.1.1]pentanyl)-5-methyl-pyridine-3-carboxamide]	
78%	856 nM	Cc1cc(C(=O)NCc2nc3ccccc3s2)cnc1N1CCc2ncccc2C1 [compound 125, N-(1,3-benzothiazol-2-ylmethyl)-6-(7,8-dihydro-5H-1,6-naphthyridin-6-yl)-5-methyl-pyridine-3-carboxamide]	
63%	9080 nM	Cc1cc(C(=O)NCCc2ccncc2)cnc1N1CCc2ncccc2C1 [compound 126, 6-(7,8-dihydro-5H-1,6-naphthyridin-6-yl)-5-methyl-N-[2-(4-pyridyl)ethyl]pyridine-3-carboxamide]	
67%	2620 nM	Cc1ncc(CNC(=O)c2cnc(N3CCc4ncccc4C3)c(C)c2)s1 [compound 127, 6-(7,8-dihydro-5H-1,6-naphthyridin-6-yl)-5-methyl-N-[(2-methylthiazol-5-yl)methyl]pyridine-3-carboxamide]	
74%	1150 nM	Cc1cc(C(=O)NCc2csc3ccccc23)cnc1N1CCc2ncccc2C1 [compound 128, N-(benzothiophen-3-ylmethyl)-6-(7,8-dihydro-5H-1,6-naphthyridin-6-yl)-5-methyl-pyridine-3-carboxamide]	
61%	3340 nM	Cc1cc(CNC(=O)c2cnc(N3CCc4ncccc4C3)c(C)c2)ccn1 [compound 129, 6-(7,8-dihydro-5H-1,6-naphthyridin-6-yl)-5-methyl-N-[(2-methyl-4-pyridyl)methyl]pyridine-3-carboxamide]	
82%	507 nM	Cc1cnccc1CNC(=O)c1cnc(N2CCc3ncccc3C2)c(C)c1 [compound 130, 6-(7,8-dihydro-5H-1,6-naphthyridin-6-yl)-5-methyl-N-[(3-methyl-4-pyridyl)methyl]pyridine-3-carboxamide]	
57%	876 nM	Cc1cc(C(=O)NCc2ccnc3ccccc23)cnc1N1CCc2ncccc2C1 [compound 131, 6-(7,8-dihydro-5H-1,6-naphthyridin-6-yl)-5-methyl-N-(4-quinolylmethyl)pyridine-3-carboxamide]	
69%	1640 nM	Cc1cc(C(=O)NCc2cnc(Cl)s2)cnc1N1CCc2ncccc2C1 [compound 134, N-[(2-chlorothiazol-5-yl)methyl]-6-(7,8-dihydro-5H-1,6-naphthyridin-6-yl)-5-methyl-pyridine-3-carboxamide]	
84%	1800 nM	Cc1c(C(=O)NCc2ccncc2)nnc(N2CCc3ncccc3C2)c1C [compound 135, 6-(7,8-dihydro-5H-1,6-naphthyridin-6-yl)-4,5-dimethyl-N-(4-pyridylmethyl)pyridazine-3-carboxamide]	

— patent US20250230155A1 (Vanderbilt University, priority 2021, published 2025)
